Assay results reported in US9643967B2, “Pyrrolo[3,2-c]pyridine derivatives as TLR inhibitors” (TAKEDA PHARMACEUTICAL COMPANY LIMITED, priority 2013, dated 2017).
Like-named read-outs stand apart in the source and are kept apart here.

Biological target: T1, mTLR9 (Mus musculus, UniProt Q9EQU3)
T1 construct: Splenocytes isolated from male C57/BL6 mice; from tissue; host or cells: splenocytes from the spleen of male C57BL/6 mice
T1 sequence (Q9EQU3 26-1032): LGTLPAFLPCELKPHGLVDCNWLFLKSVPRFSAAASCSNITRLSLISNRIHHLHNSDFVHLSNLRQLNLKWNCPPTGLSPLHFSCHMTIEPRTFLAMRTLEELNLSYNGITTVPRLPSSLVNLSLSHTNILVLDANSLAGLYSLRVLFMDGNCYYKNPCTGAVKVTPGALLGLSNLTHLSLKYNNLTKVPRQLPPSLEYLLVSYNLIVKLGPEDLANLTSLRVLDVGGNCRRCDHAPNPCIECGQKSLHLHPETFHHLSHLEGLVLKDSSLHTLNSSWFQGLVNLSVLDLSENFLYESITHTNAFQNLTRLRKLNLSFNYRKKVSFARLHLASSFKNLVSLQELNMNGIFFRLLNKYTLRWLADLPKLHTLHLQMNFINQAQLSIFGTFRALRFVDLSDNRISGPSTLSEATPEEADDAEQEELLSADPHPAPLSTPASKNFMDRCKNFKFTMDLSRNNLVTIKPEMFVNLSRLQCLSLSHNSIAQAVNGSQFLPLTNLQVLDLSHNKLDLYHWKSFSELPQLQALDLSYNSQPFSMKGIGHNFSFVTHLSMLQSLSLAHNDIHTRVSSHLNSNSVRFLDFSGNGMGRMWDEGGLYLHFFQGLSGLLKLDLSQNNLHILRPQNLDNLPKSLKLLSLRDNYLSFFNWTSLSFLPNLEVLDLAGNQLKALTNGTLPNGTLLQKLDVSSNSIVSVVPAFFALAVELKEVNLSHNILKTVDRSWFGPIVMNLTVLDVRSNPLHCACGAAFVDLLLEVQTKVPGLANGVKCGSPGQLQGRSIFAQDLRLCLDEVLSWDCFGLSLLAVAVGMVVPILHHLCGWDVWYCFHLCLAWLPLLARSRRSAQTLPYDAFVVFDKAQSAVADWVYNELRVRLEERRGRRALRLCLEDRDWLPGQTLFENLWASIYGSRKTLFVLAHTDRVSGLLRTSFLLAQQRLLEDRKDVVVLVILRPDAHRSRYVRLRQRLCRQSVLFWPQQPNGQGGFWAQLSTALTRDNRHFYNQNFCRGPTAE
Test: mTLR9 antagonism (IL-6 and TNF-α release assay) in mouse splenocytes, CpG ODN-2006 stimulated
Type: cell-based
Conditions: 1 μM, mouse splenocytes
Excerpt: mTLR9 and mTLR7 Antagonism (Cytokine Release Assay) in Mouse Splenocytes
TLR7 ligand R0006 (IDT, 5′-rU*rU*rG*rU*rU*rG*rU*rU*rG*rU*rU*rG*rU*rU*rG*rU*rU*rG*rU*rU-3′ (SEQ ID NO:1)), Liposomal transfection reagent—DOTAP (Roche, Cat. No. 11202375001), TLR9 ligand CpG ODN2006 (Sequence: T*C*G*T*C*G*T*T*T*T*G*T*C*G*T*T*T*T*G*T*C*G*T*T; *=phosphorothioate (SEQ ID NO:2)) DMSO (Sigma, D2650), RPMI Powder (Sigma, R6504), Fetal Bovine Serum (Gibco, 10270), Dulbecco's Phosphate Buffered Saline (Sigma, D1408), 96 well plate (Flat bottom, Costar 3599), ELISA kit for IL-6 (EBioscience, 88-7064-77 and TNFa (EBioscience, 88-7346-88), MACS Buffer (AutoMACS Rinsing Solution (Miltenyl Biotec, 130-091-222)+0.05% BSA), RBC lysis buffer (0.85% NH4Cl), 40 μm cell strainer (BD Falcon, 352340) Method: A. Isolation of Mouse Splenocytes
Mouse spleen was isolated from C57BL6 mouse and stored in 1× chilled PBS buffer until further processed. Spleen was transferred to a sterile petriplate and chopped in to 5-6 pieces in presence of MACS buffer (100 μl) with the help of fresh surgical blade and crushed with flat plunger of a sterile syringe. A uniform suspension was prepared by passing cells through a 40 μm cell strainer. Cells were centrifuged at 450×g for 5 minutes at 4° C., supernatant was discarded and pellet dislodged gently, resuspended in 2 ml of pre-warmed (37° C.) RBC lysis buffer at room temperature with continuous gentle mixing with 1 ml pipette. Lysis buffer was neutralized with 12 ml of chilled MACS buffer and cells were passed through 40 μm cell strainer. Cell suspension was collected in 15 ml MACS buffer and centrifuged at 450×g for 5 minutes at 4° C. Pellet was resuspended in 15 ml MACS buffer and centrifuged at 400×g for 5 minutes. Cells were resuspended in 10 ml of RPMI complete medium and viability was estimated by Trypan blue method.
mTLR9 Antagonism (IL-6 and TNF-α Release Assay):
500 μM stock of CpG ODN-2006 was prepared in sterile, endotoxin-free water. Dilutions of 10× concentrations of NCEs were prepared in incomplete RPMI media, maintaining a final DMSO concentration of 0.3%. NCEs were added in a concentration range of 30 μM to 1 nM in respective wells of assay plate, assay medium containing 0.3% DMSO were added to control wells. 0.2 million splenocytes were added to all the wells and incubated at 37° C. in 5% CO2 incubator for 30 minutes. 1 μg/ml of respective agonist was added to all the wells except those were assigned as negative controls and mixed thoroughly. Incomplete RPMI was added to negative control wells and incubated overnight at 37° C./5% CO2. The plate was centrifuged at 450×g for 5 minutes at room temperature and the supernatant was collected. ELISA was performed as per manufacturer's protocol. S/B Ratio, % Activity and % Inhibition was calculated using MS Excel. IC50 and inhibition curve was generated using Graph Pad Prism.

[1] = TNF-α release, read-out: mTLR9 inhibitory activity (% at 1 μM), TNF-α
[2] = IL-6 release, read-out: mTLR9 inhibitory activity (% at 1 μM), IL-6

Row | inhibition at 1 µM [1] | inhibition at 1 µM [2] | Structure (SMILES)
1 | 41% | 84% | c1cc2[nH]c(CN3CCOCC3)cc2c(-c2ccc(N3CCNCC3)cc2)n1 [Example A42, 4-[[4-(4-(piperazin-1-yl)phenyl)-1H-pyrrolo[3,2-c]pyridin-2-yl]methyl] morpholine]
2 | 90% | 100% | Cc1cc2[nH]c(CN3CCOCC3)cc2c(-c2ccc(C3CCN(C(C)C)CC3)cc2)n1 [Example A51, 4-[[4-[4-(1-isopropyl-4-piperidyl)phenyl]-6-methyl-1H-pyrrolo[3,2-c]pyridin-2-yl]methyl]morpholine]
3 | 80% | 100% | CC(C)N1CCN(c2ccc(-c3nccc4[nH]c(CN5CCOCC5)cc34)cn2)CC1 [Example A53, 4-[[4-[6-(4-isopropylpiperazin-1-yl)-3-pyridyl]-1H-pyrrolo[3,2-c]pyridin-2-yl]methyl]morpholine]
4 | 0% | – | CC(C)N1CCC(n2cc(-c3nccc4[nH]c(CN5CCOCC5)cc34)cn2)CC1 [Example A54, 4-[[4-[1-(1-isopropyl-4-piperidyl)pyrazol-4-yl]-1H-pyrrolo[3,2-c]pyridin-2-yl]methyl]morpholine]
5 | 59% | 96% | CC(C)N1CCN(Cc2ccc(-c3nccc4[nH]c(CN5CCOCC5)cc34)cc2)CC1 [Example A55, 4-[[4-[4-[(4-isopropylpiperazin-1-yl)methyl]phenyl]-1H-pyrrolo[3,2-c]pyridin-2-yl]methyl]morpholine]
6 | 71% | – | CC(C)N1CCC(Oc2ccc(-c3nccc4[nH]c(CN5CCOCC5)cc34)cc2)CC1 [Example A56, 4-[[4-[4-[(1-isopropyl-4-piperidyl)oxy]phenyl]-1H-pyrrolo[3,2-c]pyridin-2-yl]methyl]morpholine]
7 | 34% | 100% | CC(C)N1CCN(c2cccc(-c3nccc4[nH]c(CN5CCOCC5)cc34)c2)CC1 [Example A57, 4-[[4-[3-(4-isopropylpiperazin-1-yl)phenyl]-1H-pyrrolo[3,2-c]pyridin-2-yl]methyl]morpholine]
8 | 79% | – | CN1CCC(Oc2ccc(-c3nccc4[nH]c(CN5CCOCC5)cc34)cc2)CC1 [Example A62, 4-[[4-[4-[(1-methyl-4-piperidyl)oxy]phenyl]-1H-pyrrolo[3,2-c]pyridin-2-yl]methyl]morpholine]
9 | 0% | 25% | CC(C)N1CCC(c2ccc(-c3nccc4[nH]c(CN5CCOCC5)cc34)cn2)CC1 [Example A64, 4-[[4-[6-(1-isopropyl-4-piperidyl)-3-pyridyl]-1H-pyrrolo[3,2-c]pyridin-2-yl]methyl]morpholine]
10 | 52% | 95% | CC(C)N1CCC(c2ccc(-c3nccc4[nH]c(CN5CCOCC5)cc34)cc2)CC1 [Example A70, 4-[[4-[4-(1-isopropyl-4-piperidyl)phenyl]-1H-pyrrolo[3,2-c]pyridin-2-yl]methyl]morpholine]
11 | 0% | 72% | CC(C)N1CCN(c2ccc(-c3nccc4[nH]c(CN5CC(O)C5)cc34)cc2)CC1 [Example A72, 1-[[4-[4-(4-isopropylpiperazin-1-yl)phenyl]-1H-pyrrolo[3,2-c]pyridin-2-yl]methyl]azetidin-3-ol]

Second part, the compound before the results:

Row | Structure (SMILES) | inhibition at 1 µM [1] | inhibition at 1 µM [2]
12 | Cc1nc(-c2ccc(N3CCN(C)CC3)cc2)c2cc(CN3CCOCC3)[nH]c2c1C [Example A37, 4-[[6,7-dimethyl-4-[4-(4-methylpiperazin-1-yl)phenyl]-1H-pyrrolo[3,2-c]pyridin-2-yl]methyl] morpholine] | 100% | –
13 | CCN1CCN(c2ccc(-c3nc(C)c(C)c4[nH]c(CN5CCOCC5)cc34)cc2)CC1 [Example A38, 4-[[4-[4-(4-ethylpiperazin-1-yl)phenyl]-6,7-dimethyl-1H-pyrrolo[3,2-c]pyridin-2-yl]methyl] morpholine] | 100% | 100%
14 | Cc1nc(-c2ccc(N3CCN(C(C)C)CC3)cc2)c2cc(CN3CCCCC3)[nH]c2c1C [Example A39, 4-[4-(4-isopropylpiperazin-1-yl)phenyl]-6,7-dimethyl-2-(1-piperidylmethyl)-1H-pyrrolo[3,2-c]pyridine] | 100% | –
15 | Cc1nc(-c2ccc(N3CCN(C(C)C)CC3)cc2)c2cc(CN3CCCC3)[nH]c2c1C [Example A40, 4-[4-(4-isopropylpiperazin-1-yl)phenyl]-6,7-dimethyl 2-(pyrrolidin-1-ylmethyl)-1H-pyrrolo[3,2-c)pyridine] | 100% | –
16 | c1cc2[nH]c(CN3CCOCC3)cc2c(-c2ccc(OC3CCNCC3)cc2)n1 [Example A49, 4-[[4-[4-(4-piperidyloxy)phenyl]-1H-pyrrolo[3,2-c]pyridin-2-yl]methyl]morpholine] | 15% | 65%
17 | CC(C)N1CC=C(c2ccc(-c3nccc4[nH]c(CN5CCOCC5)cc34)cn2)CC1 [Example A52, 4-[[4-[6-(1-isopropyl-3,6-dihydro-2H-pyridin-4-yl)-3-pyridyl]-1H-pyrrolo[3,2-c]pyridin-2-yl]methyl]morpholine] | 29% | 100%
18 | CN1CCN(Cc2ccc(-c3nccc4[nH]c(CN5CCOCC5)cc34)cc2)CC1 [Example A60, 4-[[4-[4-[(4-methylpiperazin-1-yl)methyl]phenyl]-1H-pyrrolo[3,2-c]pyridin-2-yl]methyl]morpholine] | 38% | 0%
19 | CN1CCN(c2cccc(-c3nccc4[nH]c(CN5CCOCC5)cc34)c2)CC1 [Example A61, 4-[[4-[3-(4-methylpiperazin-1-yl)phenyl]-1H-pyrrolo[3,2-c]pyridin-2-yl]methyl]morpholine] | 45% | 100%
20 | CN1CCC(n2cc(-c3nccc4[nH]c(CN5CCOCC5)cc34)cn2)CC1 [Example A63, 4-[[4-[1-(1-methyl-4-piperidyl)pyrazol-4-yl]-1H-pyrrolo[3,2-c]pyridin-2-yl]methyl]morpholine] | 0% | –
21 | CC(C)N1CCN(c2ccc(-c3nccc4[nH]c(CN5CCC[C@@H]5C(=O)O)cc34)cc2)CC1 [Example A74, (2R)-1-[[4-[4-(4-isopropylpiperazin-1-yl)phenyl]-1H-pyrrolo[3,2-c]pyridin-2-yl]methyl]pyrrolidine-2-carboxylic acid] | 95% | –
